Measured values taken from article PMC5293122, “Linalool, a Piper aduncum essential oil component, has selective activity against Trypanosoma cruzi trypomastigote forms at 4°C” (Memórias do Instituto Oswaldo Cruz, 2017).
≈ marks a conversion by molar mass, not a printed value. Where “and” joins values, the source holds several entries; their conditions need not be identical. Identical values can stand only once. Entries after “also recorded” stand apart in the source; their conditions may differ. Like-named read-outs stand apart in the source and are kept apart here. Values belong to the compound of their own block, whether it stands above or below them.

What was measured:
[1] = system: Trypanosoma cruzi cell-derived trypomastigotes; test: Activity on cell-derived trypomastigotes at 4 °C, 24 h, MTT assay; format: cell-based, T. cruzi clone Dm28c; settings: for Selectivity index (SI) - Vero cells: Table II, CC50 Vero cells / IC50 cell-derived trypomastigotes (4 °C); for IC50: Trypanosoma cruzi
[2] = Cytotoxicity on Vero cells, MTT assay; format: cell-based; settings: African green monkey, Vero cells (ATCC CCL-81), Vero cells
Method: MTT assay - After drug treatments, MTT solution (10 mg/mL in PBS) was added to each well for a final concentration of 2.5 mg/mL (or 1 mg/mL for trypomastigotes). Plates were incubated for 3 h at 28 °C in the dark, centrifuged for 10 min at 475 g and the supernatant was removed (by quick plate reversal). Then, 20 µL SDS was added to each well, followed by incubation for 1 h at 28 °C, after which 80 µL DMSO was added to each well and incubated for a further 1 h at 28 °C. Finally, the residual material was removed with the aid of a toothpick, and sample absorbance (at 550 nm) was read in an EL800 microplate reader (Biotek, Winooski, VT, USA). Dose-response curves were produced using the CompuSyn software, which was also used to calculate IC50/24 values.
Cytotoxicity - Vero cells were seeded in 96-well plates (2 x 10^4 cells/well) with RPMI-1640 medium and cultivated for 24 h at 37 °C (5% CO2). […] Then, plates were subjected to the MTT assay as described above (see “MTT assay”), and MTT data were used to calculate 50% cytotoxicity (CC50/24 h) values. Plates were examined in an inverted microscope every 12 h, to evaluate monolayer integrity (confluence and adhesion).

[3] = Cytotoxicity on red blood cells at 4 °C; format: cell-based, human; settings: red blood cells (erythrocytes); human RBCs, 4 °C
Method: (§1) To analyse cytotoxicity on red blood cells (RBCs) at 4 °C, human erythrocytes were obtained from 10-mL blood samples (O+), from a healthy volunteer donor, as previously described ([Izumi et al. 2012]). After collection, blood was […] and then washed with a sterile ‘saline-glucose’ solution (0.85% NaCl/5% glucose). The final pellet was diluted in saline-glucose and centrifuged for 5 min at 1400 g. The supernatant was discarded and the pellet of RBCs was diluted in saline-glucose, for a final concentration of 6%. […] Negative control samples represented untreated RBCs diluted in saline-glucose. After treatment, plates were centrifuged at 1027 g for 2 min, and 100 µL of supernatant from each well were transferred to a new plate and analysed (at 550 nm) in an EL800 microplate reader (Biotek, Winooski, VT, USA). Cytotoxicity (CC50) values were calculated using Excel, and selectivity index (SI) values were calculated as the ratio between the CC50/24 h (for Vero cells or RBCs) and IC50/24 h values.

[4] = system: red blood cells (RBCs); test: Cytotoxicity on red blood cells at 4 °C; format: cell-based, human; settings: CC50 RBCs (4 °C) / IC50 cell-derived trypomastigotes (4 °C)
Method: as §1

[5] = system: T. cruzi blood trypomastigotes (Y strain); set-up: method as in Santoro et al. 2007b; settings: ref Santoro et al. 2007b; cited from earlier work
[6] = system: Vero cells; test: Cytotoxicity on Vero cells, MTT assay; format: cell-based; settings: 1 µg/mL, 24 h; not shown
[7] = system: Trypanosoma cruzi cell-derived trypomastigotes; test: PaEO activity on cell-derived trypomastigotes at 28 °C, 24 h, cell counting; format: cell-based, T. cruzi clone Dm28c
Method: To obtain cell-derived trypomastigotes, Vero cells were incubated with cell-derived trypomastigotes (1:10 ratio of cells to parasites) in 75 cm^2 culture flasks containing 8 mL DMEM. After 4 h of interaction, non-internalised parasites were removed by rinsing with phosphate-buffered saline (PBS), new medium was added, and then changed to fresh medium every 24 h. After 96 h of infection, trypomastigotes released into the supernatant were collected by centrifugation at 3000 g for 10 min.
PaEO activity assays with cell-derived trypomastigotes were performed at 28 °C and 4 °C. […]

[8] = system: Trypanosoma cruzi metacyclic trypomastigotes; test: PaEO activity on metacyclic trypomastigotes at 28 °C, 24 h, cell counting; format: cell-based, T. cruzi clone Dm28c
Method: (§2) Parasites - In this work, we used the T. cruzi clone Dm28c. Epimastigote forms were kept at 28 °C in LIT medium supplemented with 10% inactivated FCS, with passages at every three days. For the experiments, parasites obtained from 72-h cultures were used.
To obtain metacyclic trypomastigotes, culture epimastigotes in late logarithmic growth phase (five days) were subjected to nutritional stress as described previously ([Contreras et al. 1985]). […]
Single drug activity assays on T. cruzi developmental forms - All experiments were performed in biological and technical triplicates. […] The absorbance of untreated cells in culture media containing 0.5% DMSO (control) was used as 100% cell viability, and the percentage of dead cells in each treatment was estimated by comparison with the untreated control.
For all assays, IC50/24 h values (based on cell counting, MTT data or infection index values) and dose-response curves were generated using the CompuSyn software (ComboSyn Inc., Paramus, NJ, USA), and statistical analysis was performed in Excel. For all assays, the fraction of affected cells (Fa) was calculated relative to the untreated control (treated/untreated ratio). […]

[9] = system: Trypanosoma cruzi epimastigotes; test: PaEO activity on epimastigotes at 28 °C, 24 h, MTT assay; format: cell-based, T. cruzi clone Dm28c
Method: as §2
(§3) Single drug activity assays on T. cruzi developmental forms - All experiments were performed in biological and technical triplicates. Incubations were performed for 24 h in all bioassays. The absorbance of untreated cells in culture media containing 0.5% DMSO (control) was used as 100% cell viability, and the percentage of dead cells in each treatment was estimated by comparison with the untreated control.
(§4) For all assays, IC50/24 h values (based on cell counting, MTT data or infection index values) and dose-response curves were generated using the CompuSyn software (ComboSyn Inc., Paramus, NJ, USA), and statistical analysis was performed in Excel. For all assays, the fraction of affected cells (Fa) was calculated relative to the untreated control (treated/untreated ratio).
To test the activity of PaEO on epimastigote forms, these cells were seeded into 96-well plates (5 x 10^6 cells/well) in LIT medium, and treated for 24 h at 28 °C with PaEO at the final concentrations of 9, 18, 37, 75, 150 and 300 µg/mL. […] Cell viability was assessed by the MTT assay (see “MTT assay”). […]

[10] = system: Trypanosoma cruzi intracellular amastigotes; test: PaEO activity against intracellular amastigotes in Vero cells, 37 °C, 24 h, infection index; format: cell-based; settings: for Amastigotes per cell / Infected cells (%): Vero cells; for Infection index (II): II = % infected cells x amastigotes per cell
Method: Vero cells - Vero cells (ATCC CCL-81) were grown in RPMI-1640 medium with L-glutamine (Sigma Aldrich, St. Louis, MO, USA), supplemented with 5% fetal calf serum (FCS; Cultilab, Campinas, SP, Brazil), at 37 °C, and in a humidified 5% CO2 atmosphere. For seeding, cell monolayers were washed twice with PBS (pH 7.2), trypsinized and collected by centrifugation at 100 g for 2 min.
as §2, §3, §4
To test PaEO activity against intracellular amastigotes, Vero cells were seeded in 24-well plates (2 x 10^4 cells/well) in DMEM (Sigma-Aldrich), and allowed to adhere for 24 h. Then, cell-derived trypomastigotes were added to each well (1:10 ratio of cells to parasites), incubated for 3 h, and non-internalised parasites were removed by washing with PBS. Infected cultures were incubated for 24 h (at 37 °C, 5% CO2), and then the culture medium was replaced with RPMI-1640 containing PaEO or BZ at final concentrations between 1 and 100 µg/mL (total volume of 1 mL/well), and plates were incubated for 24 h, at 37 °C (5% CO2). Treated cells were fixed with methanol, stained with Giemsa, and the inhibitory effect on intracellular amastigotes was estimated by counting (a) the number of infected cells, and (b) the number of amastigotes per cell, in 100 cells/wells, from random light microscopy images.

[11] = system: Chagas disease; settings: cited from earlier work; for Treatment efficacy: ref Rassi et al. 2009
[12] = 37 °C, read-out: Vero cells CC50/24 h
[13] = Trypanosoma cruzi, 24 h, read-out: IC50/24 h

IC50 ([1]; cell-derived trypomastigotes, 4 °C, 24 h, read-out: IC50/24 h): 0.306 µg/mL (≈ 1.98 µM)
IC50 ([1]; cell-derived trypomastigotes, 4 °C, 24 h, read-out: T. cruzi IC50/24 h): 0.31 µg/mL (≈ 2.01 µM)
Structure (SMILES): C=CC(C)(O)CCC=C(C)C (centres unmarked) [Linalool, linalool]
Selectivity index (SI) - Vero cells [1]: 2.7
Selectivity index (SI) - Vero cells ([1]; listed as linalool): 2.69
Times more efficient than gentian violet ([1]; cell-derived trypomastigotes, 4 °C): approximately 80,000 times
Times more effective than BZ at 28ºC ([1]; linalool at 4 °C vs BZ at 28 °C, cell-derived trypomastigotes): approximately 52 times
CC50 at 24 h [2, 12]: 0.87 µg/mL (≈ 5.64 µM)
CC50 at 24 h ([2]; b44 prints at 4 °C, read-out: CC50/24 h): 0.824 µg/mL (≈ 5.34 µM)
CC50 at 24 h [3]: 7340 µg/mL (≈ 47600 µM)
Selectivity index (SI) - RBCs [4]: 23,990
IC50/24 h [5]: 264 µg/mL (≈ 1710 µM)

Structure (SMILES): C=CC(C)(O)CCC=C(C)CCC=C(C)C (mixture of isomers) [nerolidol]
Trypanocidal activity (light microscopy and MTT) ([1]; 100 ng/mL to 1 µg/mL, 4 °C, 24 h, data not shown): no appreciable trypanocidal activity; also recorded: failed to affect significantly
Integrity of Vero cell monolayers [6]: did not affect the integrity; also recorded: remained intact

Structure (SMILES): CN(C)c1ccc(C(=C2C=CC(=[N+](C)C)C=C2)c2ccc(N(C)C)cc2)cc1 [Gentian Violet, gentian violet]
Selectivity index (SI) - Vero cells [1]: 2.9
Selectivity index (SI) - RBCs [4]: > 2.8

Structure (SMILES): O=C(Cn1ccnc1[N+](=O)[O-])NCc1ccccc1 [BZ, Benznidazole]
Selectivity index (SI) ([7]; CC50 on Vero cells / IC50, cell-derived trypomastigotes 28 °C): 63.4
IC50 [7, 13]: 16.1 µg/mL (≈ 61.9 µM)
Selectivity index (SI) ([8]; CC50 on Vero cells / IC50, metacyclic trypomastigotes 28 °C): 3,646.4
IC50 [8, 13]: 0.3 µg/mL (≈ 1.15 µM)
Selectivity index (SI) ([9]; CC50 on Vero cells / IC50, epimastigotes 28 °C): 69.4
IC50 [9, 13]: 45 µM and 14.7 µg/mL
II decrease ([10]; 10 µg/mL, 24 h): 81.3%
Amastigotes per cell ([10]; 10 µg/mL, 24 h): 2.5
Infected cells (%) ([10]; 10 µg/mL, 24 h): 74.9%
Infection index (II) ([10]; 10 µg/mL, 24 h): 187.2
II decrease ([10]; 50 µg/mL, 24 h): 99.9%
Amastigotes per cell ([10]; 50 µg/mL, 24 h): 0.9
Infected cells (%) ([10]; 50 µg/mL, 24 h): 0.4%
Infection index (II) ([10]; 50 µg/mL, 24 h): 0.3
Selectivity index (SI) ([10]; CC50 on Vero cells / IC50, amastigotes 37 °C): 1,276.2
IC50 ([10]; Trypanosoma cruzi, Vero, 24 h, read-out: IC50/24 h): 0.8 µg/mL (≈ 3.07 µM)
CC50 at 24 h [2, 12]: > 1000 µg/mL
Treatment efficacy ([11]; acute phase of the disease): approximately 80%
Treatment efficacy ([11]; chronic phase of the disease): ~20%
Treatment discontinuation due to side effects ([11]; ref Bern 2011): 7-13 % of cases
